Values after ≈ are worked out from the molar mass of the structure shown.
Key:
[1] = Cell toxicity to mock-infected MT-4 cells by MTT method; format: cell-based; conditions: human, 5 days, read-out: CC₅₀
Experimental: (§1) Test Method: MMT (the tetrazolium assay) method Cell: MT-4 Cell Virus: HTLV-IIIB (Infection : 3 x 10⁵ plaque forming units (PFU)/ml) MT-4 cells were suspended in a culture medium at 2 x 10⁵ cells/ml and infected with HIV-IIIB at a multiplicity of infection of 0.01. Immediately after infection, 100µl of cell suspension was placed into microtiter tray wells containing various concentrations of the test samples. At the same time, the mock-infected cells were also cultured together with the samples in order to assess the cell toxicity of the test samples to the MT-4 cell. They were cultured in a CO₂-gas incubator at 37°C for 5 days, and the number of viable cells were determined by the MTT method. Antiviral activity is expressed by EC₅₀ (50% effective concentration), the concentration at which the agent protects 50% of the cells from injury by HIV infection, and cell toxicity by CC₅₀ (50% cell toxicity concentration), the concentration at which 50% of the cells are injured by the agent. Selectivity is measured by a selectivity index (S.I), which is expressed by CC₅₀/EC₅₀ (R. Pauwels, et al., J. of […], vol. 20, 1988, pp. 309-321).

HTLV-IIIB = test: Anti-HIV activity by MTT (tetrazolium) method in MT-4 cells; format: cell-based; conditions: for EC₅₀: MT-4 cells infected with HTLV-IIIB, MOI 0.01, 5 days, MTT
Experimental: as §1

MT-4 Cell [2] = test: Cell toxicity to mock-infected MT-4 cells by MTT method; format: cell-based; conditions: 5 days
Experimental: as §1

HIV [3] = test: HIV-induced cytopathic effect: viable count of HIV-infected MT-4 cells (trypan blue exclusion)
Experimental: (§2) The anti-HIV activity of each sample was evaluated by the HIV-induced cytopathic effect (CPE) and the expression of the virus-specific antigen.

MT-4 Cell [4] = test: Viable count of mock-infected MT-4 cells cultured with sample (trypan blue exclusion); format: cell-based
Experimental: Samples: MPS-1, MPS-2, MPS-3 and LPS-1 Cell and Virus: MT-4 Cell, MOLT-4 Cell HTLV as one HIV strain was prepared from the supernatant of the HIV-infected cells. The titer for the virus preparation (6 x 10⁵ plaque formation units/ml) was measured by the plaque assay method using MT-4 cells.
The MT-4 cells were mixed with HIV at 0.002MOI (multiplicity of infection), to be cultured at 37°C for 60 min. The virus-absorbing cells were washed and adjusted at 3 x 10⁵ cells/ml (the culture medium was RPMI1640 which supplemented with 10% heat-inactivated fetal calf serum and antibiotic). The suspension of the infected cells was cultured in the presence of the sample, and then cultured in a CO₂-containing atmosphere for 3 days. Then, the medium was replaced with the one containing the same quantity of the sample. Percentages of the viable cells and virus antigen positive cells were counted by the trypan blue exclusion method and indirect fluorescent antibody (IF) methods, respectively.
The test results are given in Tables 1 through 8, where the units for concentration, mock-infected cell count, infected cell count, percentage of HIV-antigen positive cell are µg/ml, x 10⁴cells/ml, and x 10⁴cells/ml, %, respectively.

HIV [5] = test: Expression of virus-specific antigen in HIV-infected MT-4 cells (indirect fluorescent antibody method)
Experimental: as §2

[6] = 3rd day, concentration 25 µg/ml
[7] = 3rd day, concentration 50 µg/ml
[8] = 3rd day, concentration 100 µg/ml
[9] = 6th day, concentration 25 µg/ml
[10] = 6th day, concentration 50 µg/ml
[11] = 6th day, concentration 100 µg/ml
[12] = 3rd day, concentration 200 µg/ml
[13] = 3rd day, concentration 500 µg/ml
[14] = 6th day, concentration 200 µg/ml

Cc1cn([C@H]2C[C@H](N=[N+]=[N-])[C@@H](CO)O2)c(=O)[nH]c1=O [AZT, 3'-azide-3'-deoxythymidine, reference compound] showed a CC50 at 120 h [1] of 3.06 µg/mL (≈ 11.5 µM) and an EC50 (HTLV-IIIB; Human immunodeficiency virus 1, IIIB, MT4, 120 h, read-out: EC₅₀) of 0.0019 µg/mL (≈ 0.00711 µM).

Work on “sodium salt of dodecyl 4-galactosyl β-D-lactoside sulfate [GTS-1]” yielded an EC₅₀ (HTLV-IIIB) of 9.8 µg/mL.

Compound “sodium salt of dodecyl 4-galactosyl-β-D-lactoside sulfate [GTS-2]” has a CC₅₀ (MT-4 Cell [2]) of 858 µg/mL and an EC₅₀ (HTLV-IIIB) of 8.6 µg/mL.

Compound “sodium salt of dodecyl maltohexaoside sulfate [MHS-2]” has a CC₅₀ (MT-4 Cell [2]) greater than 1000 µg/mL and an EC₅₀ (HTLV-IIIB) of 3.91 µg/mL.

“sodium salt of dodecyl β-D-laminaripentaoside sulfate [LPS-1-1]” gave a CC₅₀ (MT-4 Cell [2]) greater than 1000 µg/mL and an EC₅₀ (HTLV-IIIB) of 0.68 µg/mL.

With “sodium salt of n-decyl β-laminaripentaoside sulfate [LPS-3]” the EC₅₀ (HTLV-IIIB) was “= 67 µg/ml”.

In the case of “sodium salt of n-hexadecyl β-laminaripentaoside sulfate [LPS-2]”, the EC₅₀ (HTLV-IIIB) is reported as “= 17 µg/ml”.

For “sodium salt of octadecyl maltoheptaoside sulfate [MHS-1]”, the CC₅₀ (MT-4 Cell [2]) was 355 µg/mL and the EC₅₀ (HTLV-IIIB) was 2) > 40 µg/ml.

Work on “sodium salt of octadecyl maltohexaoside sulfate [MHS-3]” yielded a CC₅₀ (MT-4 Cell [2]) of 580 µg/mL and an EC₅₀ (HTLV-IIIB) of 10.36 µg/mL.

In the case of “sodium salt of octadecyl maltotrioside sulfate [MTS-1]”, the CC₅₀ (MT-4 Cell [2]) is reported as 329 µg/mL and the EC₅₀ (HTLV-IIIB) is reported as 1) > 40 µg/ml.

In the case of “sodium salt of sulfated dodecyl β-D-laminarpentaoside [LPS-1]”, the HIV-infected cell count (HIV [3]; [6]) is reported as 133 x 10⁴cells/ml, the HIV-infected cell count (HIV [3]; [7]) is reported as 128 x 10⁴cells/ml and the HIV-infected cell count (HIV [3]; [8]) is reported as 130 x 10⁴cells/ml. The HIV-infected cell count (HIV [3]; [9]) was 88 x 10⁴cells/ml, the HIV-infected cell count (HIV [3]; [10]) was 150 x 10⁴cells/ml and the HIV-infected cell count (HIV [3]; [11]) was 107 x 10⁴cells/ml. The Mock-infected cell count (MT-4 Cell [4]; [6]) was 151 x 10⁴cells/ml, the Mock-infected cell count (MT-4 Cell [4]; [7]) was 149 x 10⁴cells/ml and the Mock-infected cell count (MT-4 Cell [4]; [8]) was 136 x 10⁴cells/ml. The Mock-infected cell count (MT-4 Cell [4]; [12]) was 120 x 10⁴cells/ml, the Mock-infected cell count (MT-4 Cell [4]; [13]) was 79 x 10⁴cells/ml and the Mock-infected cell count (MT-4 Cell [4]; [9]) was 145 x 10⁴cells/ml. The Mock-infected cell count (MT-4 Cell [4]; [10]) was 149 x 10⁴cells/ml, the Mock-infected cell count (MT-4 Cell [4]; [11]) was 140 x 10⁴cells/ml and the Mock-infected cell count (MT-4 Cell [4]; [14]) was 124 x 10⁴cells/ml. The “Percentage of HIV-antigen positive cell” value (HIV [5]; [6]) was 3%, the “Percentage of HIV-antigen positive cell” value (HIV [5]; [7]) was less than 1% and the “Percentage of HIV-antigen positive cell” value (HIV [5]; [8]) was less than 1%. For the same compound, the “Percentage of HIV-antigen positive cell” value (HIV [5]; [12]) was less than 1%, the “Percentage of HIV-antigen positive cell” value (HIV [5]; [13]) was less than 1% and the “Percentage of HIV-antigen positive cell” value (HIV [5]; [9]) was 20%. The “Percentage of HIV-antigen positive cell” value (HIV [5]; [10]) was less than 1%, the “Percentage of HIV-antigen positive cell” value (HIV [5]; [11]) was 0% and the “Percentage of HIV-antigen positive cell” value (HIV [5]; [14]) was 0%.

— EP0497988A1, “ANTIVIRAL AGENT” (DAINIPPON INK AND CHEMICALS, INC., priority 1990, dated 1992)
